Data as given in US7713949B2, “Compositions and methods for enhancing paracellular permeability across epithelial and endothelial barriers” (The University of North Carolina at Chapel Hill, priority 2000, dated 2010).

Columns and labels:
[1] = test system: MDCK cell monolayers; assay: Effect on transepithelial electrical resistance (TEER) across MDCK cell monolayers; format: cell-based, canine; conditions: for EC50: 0.5 h, MDCK cells, apical, 30-minute incubation at 37° C., mean ± SD, read-out: EC50 (concentration required to decrease TEER by fifty percent); for Effect on TEER: 30-minute treatment
Experimental: (§1) For transport studies, MDCK cells, derived from normal proximal epithelial kidney cells of a male cocker spaniel, which is model for transport experiments (Cho, M. J., et al. (1989) Pharm. Res. 6:71-77), were grown on TRANSWELL™ multi-well plates. Each well was seeded with 200,000 cells. The cells were then grown in cell media (MEM with 1% antibiotic, supplemented with 10% fetal bovine serum (FBS) and 1% NEAA), and were maintained at 37° C. and 5% CO2. Confluent cells were grown for four days where they differentiated into epithelial cell monolayers as evidenced by the establishment of a stable TEER.
TEER (expressed as Ω·cm^2) serves as a measure of functional integrity of tight junctions. TEER was measured by an EVOM Epithelial Tissue Voltohmeter (World Precision Instruments, Sarasota, Fla.) and an Endohm-12 electrode (World Precision Instruments, Sarasota, Fla.). TEER values of MDCK cells that formed a functional monolayer ranged between 150-250 Ω·cm^2.
Experiments were initiated by adding 0.5 mL of HBSS supplemented with 10 mM HEPES, pH 7.4 (transport buffer) containing compound or vehicle to the apical side of the TRANSWELL™ multi-well plate. […] Data from each experiment were normalized to the response from the vehicle and were reported as the mean±SD of three experiments performed in triplicate.
The effect of akylphosphocholines on TEER was evaluated at several concentrations, and the concentration that caused a 50% decrease in TEER with respect to the untreated control was defined as EC50 (Liu, D. Z., et al. (1999) J. Pharm. Sci. 88:1161-1168; Liu, D. Z., et al. (1999) J. Pharm. Sci. 88:1169-1174).

[2] = test system: MDCK cell monolayers; assay: Effect on [14C]-mannitol flux across MDCK cell monolayers; format: cell-based, canine; conditions: for EC10x (concentration that increases mannitol flux by ten fold): MDCK cells, apical, flux measured between 30 and 60 minutes of treatment, mean ± SD
Experimental: as §1
Mannitol, a hydrophilic compound, cannot readily cross the epithelial membrane, and must transverse the epithelium via the paracellular pathway. Therefore, the flux of mannitol through the epithelium is a reflection of the permeability of the paracellular pathway. Detection of mannitol is accomplished with [^3H] or [^14C] radiolabels.
The integrity of the tight junctions of cell monolayers was monitored with the measurement of TEER prior to the experiment. Transport experiments were initiated by replacing the apical media with 0.5 mL of transport buffer containing compound or vehicle, and [^14C]-mannitol. Concentration of [^14C]-mannitol was 25 μM (55 mCi/mmol). Transport rates were monitored by the measurement of the amount of [^14C]-mannitol accumulated in the basolateral side (1.5 mL) during two 30-minute intervals. The amount of radiolabeled [^14C]-mannitol transported was measured by liquid scintillation counting in a Packard Tri Carb 4000 Series spectrophotometer available from Packard Instrument Company of Meriden, Conn. All transport experiments were carried out under sink conditions (transport experiments were designed such that less than 10% of the total amount of [^14C]-mannitol was present on the basolateral side at any given time). The effect of alkylphosphocholines on the transport of [^14C]-mannitol was normalized to the transport of [^14C]-mannitol in the vehicle-treated cells and was reported as the mean±SD of three experiments performed in triplicate. The EC10x was determined by the concentration of compound that causes a 10-fold increase in mannitol flux with respect to the vehicle treated control.

[3] = test system: PLC-β; assay: ATP-stimulated PLC activity ([3H]-inositol phosphate accumulation) in MDCK cells; format: cell-based, canine; conditions: for Effect on ATP-stimulated PLC (PLC-β) activity: 100 μM ATP; for Effect on ATP-stimulated PLC (PLC-β) activity / IC50: MDCK cells; for IC50: 30 minutes with compound, then 15 minutes stimulation, mean ± SD, read-out: IC50(PLC) (concentration causing fifty percent decrease in ATP- or EGF-stimulated accumulation of [3H]-inositol phosphates)
Experimental: (§2) Measurement of activity of PLC in MDCK cells was determined by an adaptation of a previously published method (Schachter, J. B., et al. (1997) Neuropharm. 36:1181-1187). MDCK cells were seeded at 400,000 cells/well in a 12-well plate and subsequently cultured for four days. MDCK cell monolayers were then labeled with [^3H]-myo-inositol (1.6 μCi/well in 0.4 ml of inositol-free media) for 24 hours at 37° C. Assays were initiated on labeled cells that were removed from the incubator by immediately supplementing the cells with 100 μl of 250 mM HEPES (pH 7.3), containing 100 mM LiCl with or without compound. Subsequently, the cells were incubated for 30 minutes at 37° C. Immediately after the termination of this incubation, ATP (final concentration: 100 μM) or EGF (20 ng/ml) was added.
(§3) The cells were then incubated at 37° C. for 15 minutes to allow accumulation of [^3H]-inositol phosphates. Incubations were terminated by aspiration of the media and the addition of 1 ml of boiling 10 mM EDTA (pH 8.0). The supernatant was applied to AG1 X8 formate columns for chromatographic isolation of [^3H]-inositol phosphates (Berridge, M. J., et al. (1983) Biochem. J. 212:473-482). The amount of [^3H]-inositol phosphates was measured by liquid scintillation counting in a Packard Tri Carb 4000 Series spectrophotometer. Data from each experiment were normalized to the response observed with 100 μM ATP or 20 ng/ml EGF and were reported as the mean±SD of three experiments performed in triplicate. The IC50 (PLC) was determined by the concentration of compound that causes a 50% decrease in ATP- or EGF-stimulated accumulation of [^3H]-inositol phosphates.
To determine the ability alkylphosphocholines to inhibit PLC activity, the ability of these compounds to inhibit the ATP-mediated increases in the levels of inositol phosphates was determined. The separation between the counts from basal and ATP-stimulated levels of [^3H]-inositol-phosphates from MDCK cell monolayers was, however, marginal (approximately 1.5-fold) for a reliable determination of the ability of alkylphosphocholines to inhibit PLC activity. To increase this separation, MDCK cells that were transfected with a plasmid that encoded the P2Y2 receptor were employed. The P2Y2 receptor is G-protein coupled receptor that activates PLC (Pawelczyk, T., and Lowenstein, J. M. (1993) Biochem. Pharm. 45:493-497). The separation between the counts from basal and ATP-stimulated levels of [^3H]-inositol-phosphates from MDCK monolayers that express P2Y2 receptors increased to approximately a 3-fold difference (counts from basal and ATP-stimulated levels of [^3H]-inositol-phosphates ranged from 200 to 400 and 700 to 1200 cpm, respectively).

[4] = test system: PLC-γ; assay: EGF-stimulated PLC activity ([3H]-inositol phosphate accumulation) in MDCK cells; format: cell-based, canine; conditions: 20 ng/ml EGF
Experimental: as §2, §3

[5] = test system: PLC; conditions: Perrella et al. 1994; cited from earlier work
[6] = in animals; cited from earlier work

| Compound | EC50 ([1]; Canis lupus familiaris) [µM] | EC10x (concentration that increases mannitol flux by ten fold) [2] [µM] | Effect on ATP-stimulated PLC (PLC-β) activity [3] | IC50 [3] [µM] | Effect on EGF-stimulated PLC-γ activity [4] | further results |
| --- | --- | --- | --- | --- | --- | --- |
| O=c1oc2ccccc2cc1[N+](=O)[O-] [3-nitrocoumarin, reference compound] | 24 ± 1 | 34 ± 5 | no inhibitory activity toward PLC-β | 21 ± 5 | inhibited EGF-stimulated PLC-γ activity |  |
| O=c1oc2cc(O)ccc2cc1[N+](=O)[O-] [7-hydroxy-3-nitrocoumarin] |  |  |  |  |  | PLC inhibition, previously reported [5]: previously reported not to inhibit PLC |
| CCCCCCCCCCCCOP(=O)([O-])OCC[N+](C)(C)C [C12, Dodecylphosphocholine] | 733 ± 32 | 900 ± 100 |  | 275 ± 135 |  | Full extent of PLC inhibition ([3]; ATP-stimulated inositol phosphate production): 50% |
| CCCCCCCCCCCCCCOP(=O)([O-])OCC[N+](C)(C)C [C14] | 44 ± 11 | 91 ± 11 |  | 73 ± 9 |  |  |
| CCCCCCCCCCCCCCCCOP(=O)([O-])OCC[N+](C)(C)C [C16, Hexadecylphosphocholine] | 29 ± 5 | 30 ± 8 | inhibited ATP-stimulated PLC-β activity | 36 ± 18 | had no effect on EGF-stimulated PLC-γ activity | activity at 30 µM ([1]; Canis lupus familiaris, MDCK, 2 h, 30 μM, over a two-hour period, read-out: TEER, % of control values): < 10% |
| CCCCCCCCCCCCCCCCCCOP(=O)([O-])OCC[N+](C)(C)C [C18] | 59 ± 8 | 66 ± 11 |  | 30 ± 2 |  |  |
| CCCCCCCCCCCCCCCCCCCCOP(=O)([O-])OCC[N+](C)(C)C [C20] | 71 ± 8 | 73 ± 1 |  | 48 ± 5 |  |  |
| COc1ccc2c(c1)CCC1C2CCC2(C)C(NCCCCCCN3C(=O)C=CC3=O)CCC12 (centres unmarked) [U-73,122, reference compound] | 6 ± 2 | 6 ± 2 | inhibited ATP-stimulated PLC-β activity | 7 ± 3 | had no effect on EGF-stimulated PLC-γ activity | Effect on TEER [1]: potently decreased TEER; Effect on mannitol flux ([2]; interval between 30 and 60 minutes of treatment): increased mannitol flux |
| COc1ccc2c(c1)CC[C@@H]1[C@@H]2CC[C@]2(C)[C@@H](NCCCCCCN3C(=O)CCC3=O)CC[C@@H]12 [U-73,343, reference compound] |  |  | did not decrease TEER or ATP-stimulated PLC activity |  |  | Effect on TEER [1]: did not decrease TEER |
| CO[C@@]1(NC(=O)Cc2cccs2)C(=O)N2C(C(=O)O)=C(COC(N)=O)CS[C@@H]21 [cefoxitin] |  |  |  |  |  | Oral bioavailability [6]: less than five percent |
